{"source": "patent US9605064B2", "about": "“Methods and compositions for treatment of skin disorders” (AbbVie Biotechnology Ltd, priority 2006, dated 2017)", "key": {"[1]": {"test_system": "patients with moderate to severe chronic plaque psoriasis", "assay": "PASI response, CHAMPION 16-week Phase III trial vs methotrexate and placebo", "format": "in vivo, human", "settings": "for PASI 75 Response Rates, % Patients / PASI 90 Response Rates, % Patients: missing PASI = non-responder", "protocol": "Analytical methods included the following: • Intention-to-treat analyses were performed for all randomized patients • Missing data were analyzed using non-responder imputation (NRI) • PASI 75 at Week 16 (primary endpoint) was analyzed using adjusted Cochran-Mantel-Haenszel test."}, "[2]": {"test_system": "patients with moderate to severe psoriasis", "assay": "Adverse events, open-label extension of REVEAL"}, "[3]": {"test_system": "patients with moderate to severe psoriasis", "assay": "PASI response, open-label extension (OLE) of REVEAL", "format": "in vivo, human", "protocol": "Laboratory parameters and adverse events were also recorded.\nThe REVEAL study had two independent primary endpoints. The first endpoint was the proportion of patients achieving 75 percent improvement in skin clearance after 16 weeks. The second endpoint was the proportion of patients who lost adequate response through week 52 after stopping treatment with HUMIRA at week 33. Signs of psoriasis were evaluated using the Psoriasis Area and Severity Index (PASI), among other measures. […] At week 52, the start of the OLE period, patients randomized at week 33, as well as patients originally in the placebo group at week 0, were able to enter the OLE period."}, "[4]": {"test_system": "patients with chronic plaque psoriasis", "assay": "PGA, 16-week open-label Phase IIIb trial after suboptimal response to ETN, MTX or NB-UVB", "format": "in vivo, human", "settings": "week 16", "excerpt": "This 16-week, multicenter, open-label, Phase IIIb trial enrolled patients with chronic plaque psoriasis who were having a suboptimal response to ETN (Physician's Global Assessment [PGA]≧mild with months of therapy, or ≧3 months of therapy and deterioration of efficacy), MTX (PGA≧mild with ≧4 months of therapy), or narrow-band ultraviolet B (NB-UVB) phototherapy (PGA moderate with months of therapy). […] The primary endpoint was the proportion of patients who achieved PGA of clear or minimal at week 16. A secondary endpoint was the proportion achieving ≧1 grade of PGA improvement. Safety was assessed throughout the study. Efficacy analyses were intention to treat, with nonresponder imputation used for missing data. Efficacy and safety results were analyzed overall and for each prior-treatment group."}, "[5]": {"test_system": "patients with moderate to severe chronic plaque psoriasis", "assay": "DLQI, Phase II 12-week placebo-controlled trial with 48-week extension", "format": "in vivo, human", "settings": "for patients with change from large/extremely large DLQI impact at baseline to no/small impact: 40 mg eow", "source_text": "The DLQI is a validated instrument used to measure disease impact on daily function.\nThe DLQI is a validated instrument used to assess dermatologic-related functional limitations, and was used as the patient related outcomes (PRO) measure. The DLQI consists of ten items and an overall scoring range of 0-30, where higher scores represent greater quality of life impairment and lower scores represent lower quality of life impairment. The DLQI also includes well-established properties of reliability and validity for the DLQI total score in a dermatology setting and measures six subcategories: symptoms and feelings, daily activities, leisure, work/school, personal relationships, and treatment.\nPatients who discontinued before the time point were not included in this analysis. Ranges of DLQI scores were evaluated for their correspondence to categories of disease impact and are described below in Table 1.\nPROs were assessed using the DLQI. The DLQI is a validated instrument used to assess dermatologic-related functional limitations."}, "[6]": {"settings": "Week 0 of OLE, n = 233, ITT, LOCF, 40 mg eow"}, "[7]": {"settings": "Week 12 of OLE, n = 233, ITT, LOCF, 40 mg eow"}, "[8]": {"settings": "Week 24 of OLE, n = 233, ITT, LOCF, 40 mg eow"}, "[9]": {"settings": "after 12 months of continuous adalimumab dosing, ITT (233 patients)"}, "[10]": {"settings": "after 18 months, ITT (233 patients)"}}, "note": "Marks after values point to notes of the source that are not given here.", "data": [{"substance": "Adalimumab: a human anti-TNF mAb, described in U.S. Pat. No. 6,090,382 as D2E7 (HUMIRA, Abbott Laboratories)", "values": [{"measurement": "mean percentage PASI improvement", "setting": "[1]; Week 4", "value": 57, "unit": "%"}, {"measurement": "PASI 75 Response Rates, % Patients", "setting": "[1]; Week 4, ITT", "value": "23*† %"}, {"measurement": "PASI 90 Response Rates, % Patients", "setting": "[1]; Week 4, ITT", "value": "7* %"}, {"measurement": "PASI 75 Response Rates, % Patients", "setting": "[1]; Week 8, ITT", "value": "62‡ %"}, {"measurement": "PASI 90 Response Rates, % Patients", "setting": "[1]; Week 8, ITT", "value": "27†‡ %"}, {"measurement": "PASI 75 Response Rates, % Patients", "setting": "[1]; Week 12, ITT", "value": "77‡ %"}, {"measurement": "PASI 90 Response Rates, % Patients", "setting": "[1]; Week 12, ITT", "value": "48†‡ %"}, {"measurement": "PASI 75", "setting": "[1]; Week 16, ITT, NRI", "value": 80, "unit": "%"}, {"measurement": "PASI 75 Response Rates, % Patients", "setting": "[1]; Week 16, ITT", "value": "80‡ %"}, {"measurement": "PASI 90 Response Rates, % Patients", "setting": "[1]; Week 16, ITT", "value": "52†‡ %"}, {"measurement": "PASI 75 Response Rates, % Patients", "setting": "[1]; Week 16, ITT, listed as ADA", "value": 79.6, "unit": "% * †"}, {"measurement": "PASI 90 Response Rates, % Patients", "setting": "[1]; Week 16, ITT, listed as ADA", "value": 51.9, "unit": "% * †"}, {"measurement": "PASI 50 response rate", "setting": "[1]; Week 16 of CHAMPION, ITT, NRI", "value": 88.0, "unit": "% * †"}, {"measurement": "PASI 100 response rate", "setting": "[1]; Week 16 of CHAMPION, ITT, NRI", "value": 16.7, "unit": "% ‡ §"}, {"measurement": "AEs leading to withdrawal, Patients (%)", "setting": "[2]; First 24 weeks of OLE", "value": 1, "unit": "%"}, {"measurement": "Any AE, Patients (%)", "setting": "[2]; First 24 weeks of OLE", "value": 47, "unit": "%"}, {"measurement": "Lymphoma, Patients (%)", "setting": "[2]; First 24 weeks of OLE", "value": 0, "unit": "%"}, {"measurement": "Malignancy, Patients (%)", "setting": "[2]; First 24 weeks of OLE", "value": 1, "unit": "%"}, {"measurement": "Non-melanoma skin cancer, Patients (%)", "setting": "[2]; First 24 weeks of OLE", "value": 0, "unit": "%"}, {"measurement": "Serious AE, Patients (%)", "setting": "[2]; First 24 weeks of OLE", "value": 3, "unit": "%"}, {"measurement": "Nasopharyngitis, Patients (%)", "setting": "[2]; First 24 weeks of OLE, AEs occurring ≧5% of patients", "value": 5, "unit": "%"}, {"measurement": "patients with serious adverse events", "setting": "[2]; between Months 12-18", "value": 2.6, "unit": "%"}, {"measurement": "PASI 75 response rate", "setting": "[3]; [6]", "value": 85, "unit": "%"}, {"measurement": "PASI 90 response rate", "setting": "[3]; [6]", "value": 84, "unit": "%"}, {"measurement": "PASI 100 response rate", "setting": "[3]; [6]", "value": 87, "unit": "%"}, {"measurement": "PASI 75 response rate", "setting": "[3]; [7]", "value": 59, "unit": "%"}, {"measurement": "PASI 90 response rate", "setting": "[3]; [7]", "value": 60, "unit": "%"}, {"measurement": "PASI 100 response rate", "setting": "[3]; [7]", "value": 63, "unit": "%"}, {"measurement": "PASI 75 response rate", "setting": "[3]; [8]", "value": 35, "unit": "%"}, {"measurement": "PASI 90 response rate", "setting": "[3]; [8]", "value": 33, "unit": "%"}, {"measurement": "PASI 100 response rate", "setting": "[3]; [8]", "value": 34, "unit": "%"}, {"measurement": "PASI 75 response rate", "setting": "[3]; [9]", "value": 85, "unit": "%"}, {"measurement": "PASI 90 response rate", "setting": "[3]; [9]", "value": 59, "unit": "%"}, {"measurement": "PASI 100 response rate", "setting": "[3]; [9]", "value": 35, "unit": "%"}, {"measurement": "PASI 75 response rate", "setting": "[3]; [10]", "value": 87, "unit": "%"}, {"measurement": "PASI 90 response rate", "setting": "[3]; [10]", "value": 63, "unit": "%"}, {"measurement": "PASI 100 response rate", "setting": "[3]; [10]", "value": 34, "unit": "%"}, {"measurement": "PASI 75 response rate", "setting": "[3]; re-randomized to adalimumab at Wk 33, did not lose adequate response, after 24 weeks in OLE", "value": 83, "unit": "%"}, {"measurement": "PASI 75 response rate", "setting": "[3]; re-randomized to adalimumab at Wk 33, lost adequate response, after 24 weeks in OLE", "value": 55, "unit": "%"}, {"measurement": "PASI 75 response rate", "setting": "[3]; re-randomized to placebo at Wk 33, did not lose adequate response, Wk 24 of OLE adalimumab", "value": 84, "unit": "%"}, {"measurement": "PASI 75 response rate", "setting": "[3]; re-randomized to placebo at Wk 33, lost adequate response, Wk 24 of OLE adalimumab", "value": 55, "unit": "%"}, {"measurement": "≧1 grade improvement in PGA", "setting": "[4]; all patients", "value": 75.0, "unit": "%"}, {"measurement": "PGA of clear or minimal", "setting": "[4]; prior ETN group", "value": 48.8, "unit": "%"}, {"measurement": "≧1 grade improvement in PGA", "setting": "[4]; prior ETN group", "value": 72.0, "unit": "%"}, {"measurement": "PGA of clear or minimal", "setting": "[4]; prior MTX group", "value": 61.0, "unit": "%"}, {"measurement": "≧1 grade improvement in PGA", "setting": "[4]; prior MTX group", "value": 78.0, "unit": "%"}, {"measurement": "PGA of clear or minimal", "setting": "[4]; prior NB-UVB group", "value": 48.3, "unit": "%"}, {"measurement": "≧1 grade improvement in PGA", "setting": "[4]; prior NB-UVB group", "value": 79.3, "unit": "%"}, {"measurement": "patients with change from large/extremely large DLQI impact at baseline to no/small impact", "setting": "[5]; week 12", "value": 85, "unit": "%"}, {"measurement": "patients with change from large/extremely large DLQI impact at baseline to no/small impact", "setting": "[5]; week 24", "value": 85, "unit": "%"}, {"measurement": "patients with change from large/extremely large DLQI impact at baseline to no/small impact", "setting": "[5]; week 36", "value": 83, "unit": "%"}, {"measurement": "patients with change from large/extremely large DLQI impact at baseline to no/small impact", "setting": "[5]; week 60", "value": 83, "unit": "%"}, {"measurement": "mean change in DLQI", "setting": "[5]; 40 mg weekly, Week 12", "value": "−11.5*"}]}]}
